*1 amine or outer side, *2 acyl side, *3 side chain or, on linkers, in order; H or OH if unused. Where a SMILES comes first, the peptide text is derived from it. [ ]: non-standard residue; d: D form. The star is where a group is joined. NHCH2(1,3-C6H4)CH2CO = O=C(Cc1cccc(CN[*:1])c1)[*:2]; F2Pmp = N[C@@H](Cc1ccc(C(F)(F)P(=O)(O)O)cc1)C(=O)O; Phenylacetyl(4-OH,3-OMe) = COc1cc(CC(=O)*)ccc1O; Benzoyl(3-Br,4-Me) = Cc1ccc(C(=O)*)cc1Br; X1 = Cc1ncsc1-c1ccc([C@H](C)N*)cc1; Hyp = O=C(O)[C@@H]1C[C@@H](O)CN1; Tle = CC(C)(C)[C@H](N)C(=O)O
Legend:
[1] = tested on: B16-F10; experiment: cells; settings: Mus musculus
Description: Antiproliferative activity against mouse B16-F10 cells

[2] = molecular target: T1, Tyrosine-protein phosphatase non-receptor type 2 (Homo sapiens, UniProt P17706)
T1 sequence (P17706 whole entry): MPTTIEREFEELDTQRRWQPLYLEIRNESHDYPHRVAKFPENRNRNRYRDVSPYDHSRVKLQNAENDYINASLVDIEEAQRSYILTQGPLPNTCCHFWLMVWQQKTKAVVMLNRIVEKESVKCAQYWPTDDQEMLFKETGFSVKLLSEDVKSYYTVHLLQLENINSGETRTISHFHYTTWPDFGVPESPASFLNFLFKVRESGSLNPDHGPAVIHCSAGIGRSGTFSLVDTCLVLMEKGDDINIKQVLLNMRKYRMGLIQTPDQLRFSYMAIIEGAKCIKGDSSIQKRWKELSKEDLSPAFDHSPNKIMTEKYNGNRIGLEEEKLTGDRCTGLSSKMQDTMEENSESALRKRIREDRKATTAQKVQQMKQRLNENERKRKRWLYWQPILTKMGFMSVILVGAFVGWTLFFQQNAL
Description: Binding affinity to PTPN2 (unknown origin) assessed as inhibition constant

[3] = molecular target: T1, Tyrosine-protein phosphatase non-receptor type 2; remark: listed apart in the source
Description: Inhibition of full length human recombinant PTPN2 by mobility shift assay

[4] = molecular target: T1, Tyrosine-protein phosphatase non-receptor type 2; remark: listed apart in the source
Description: Inhibition of PTPN2 (unknown origin)

[5] = tested on: B16-F10; experiment: cells; settings: Mus musculus; remark: listed apart in the source
Description: Antiproliferative activity against mouse B16-F10 cells assessed as inhibition of cell growth

[6] = molecular target: Protein cereblon/Tyrosine-protein phosphatase non-receptor type 2 (Homo sapiens, UniProt P17706+Q96SW2); settings: hek293t
Sequence of Protein cereblon/Tyrosine-protein phosphatase non-receptor type 2 (Q96SW2 whole entry, one chain of several): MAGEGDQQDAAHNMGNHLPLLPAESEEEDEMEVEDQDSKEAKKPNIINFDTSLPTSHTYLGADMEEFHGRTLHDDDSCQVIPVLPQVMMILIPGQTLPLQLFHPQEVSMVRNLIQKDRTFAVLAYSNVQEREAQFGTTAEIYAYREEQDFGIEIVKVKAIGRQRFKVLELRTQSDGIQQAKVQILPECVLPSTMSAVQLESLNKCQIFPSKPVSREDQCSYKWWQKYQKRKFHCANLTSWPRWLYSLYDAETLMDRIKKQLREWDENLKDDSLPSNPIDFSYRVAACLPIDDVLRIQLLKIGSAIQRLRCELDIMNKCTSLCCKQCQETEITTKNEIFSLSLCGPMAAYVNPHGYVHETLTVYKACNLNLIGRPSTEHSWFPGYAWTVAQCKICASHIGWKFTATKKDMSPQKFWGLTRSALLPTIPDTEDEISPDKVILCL
Description: PROTAC activity at PTPN2/CRBN in HEK293T cells assessed as protein degradation measured for 48 hrs by Western blot analysis

| SMILES | IC50 [1] [nM] | IC50 [4] [nM] | other results |
| --- | --- | --- | --- |
| O=C1CN(c2c(O)cc(NC3=NCCCN3)cc2F)S(=O)(=O)N1 | < 5000 | – | Ki [2]: 5 nM |
| O=C1CN(c2c(O)cc3c(c2F)CC(CNCCC(F)F)N3)S(=O)(=O)N1 (stereo not given) | – | – | IC50 [3]: 15.2 nM |
| O=C(O)CN1CCN(CCN2CN(Cc3ccccc3)C(=O)S2)CC1 | – | 8770 | – |
| CC(C)CCn1cnc2cc(O)c(N3CC(=O)NS3(=O)=O)c(F)c2c1=O | – | > 10000 | – |
| O=C1CN(c2c(O)cc3c(c2F)C[C@H](NCCCC(F)F)CC3)S(=O)(=O)N1 | < 50 | < 1 | IC50 [3]: < 0.1 nM |
| CC(C)CCn1ccc(-c2ccc(O)c(N3CC(=O)NS3(=O)=O)c2F)n1 | – | < 1000 | – |
| O=C1CN(c2c(O)cc(CC3CCN(CC4CC4)C3)cc2F)S(=O)(=O)N1 (stereo not given) | – | – | IC50 [5]: 17400 nM |
| CC(C)CCn1ccc(-c2ccc(O)c(N3CC(=O)NS3(=O)=O)c2F)c1 | – | < 1000 | – |
| CCN1CN(Cc2ccc(Cl)cc2)C(=O)S1 | – | 330 | – |
| O=C1CN(c2c(O)cc(CC3CCCN(CC4CC4)C3)cc2F)S(=O)(=O)N1 (stereo not given) | – | – | IC50 [5]: > 46400 nM |
| CC(C)N1CCN(CCN2CN(Cc3ccccc3)C(=O)S2)CC1 | – | 7100 | – |
| CCN1CN(Cc2ccc(I)cc2)C(=O)S1 | – | 370 | – |
| COc1ccnc(NCc2cc(O)c(N3CC(=O)NS3(=O)=O)c(F)c2)c1 | 140 | – | – |
| CC(C)CCNC(=O)Nc1cc(O)c(N2CC(=O)NS2(=O)=O)c(F)c1 | < 5000 | 5 | – |
| COc1cc(C)nc(NCc2cc(O)c(N3CC(=O)NS3(=O)=O)c(F)c2)c1 | 50 | – | – |
| CC(C)Cc1cnc(Nc2cc(O)c(N3CC(=O)NS3(=O)=O)c(F)c2)nc1O | 5000 | – | Ki [2]: < 1 nM |
| Cc1cnc(Nc2cc(O)c(N3CC(=O)NS3(=O)=O)c(F)c2)nc1O | 50000 | – | Ki [2]: < 1 nM |
| CC1(C)CCC(NCc2cc(O)c(N3CC(=O)NS3(=O)=O)c(F)c2)CC1 | 81000 | – | – |
| CC(C)CCN1CCCC(Cc2cc(O)c(N3CC(=O)NS3(=O)=O)c(F)c2)C1 (stereo not given) | – | – | IC50 [5]: > 100000 nM |

| SMILES | IC50 [1] [nM] | IC50 [4] [nM] | other results |
| --- | --- | --- | --- |
| CC(C)CCc1ccc2cc(O)c(N3CC(=O)NS3(=O)=O)c(F)c2n1 | – | < 1000 | – |
| O=C1CN(c2c(O)cc(CC3CCNC3)cc2F)S(=O)(=O)N1 (stereo not given) | – | – | IC50 [5]: 7430 nM |
| O=C1CN(c2c(O)cc3c(c2F)C[C@H](NCCC2CC2)CC3)S(=O)(=O)N1 | 220 | – | – |
| CCN1CN(Cc2ccc(F)cc2)C(=O)S1 | – | 280 | – |
| COc1cccc(NCc2cc(O)c(N3CC(=O)NS3(=O)=O)c(F)c2)n1 | 8660 | – | – |
| COc1cc(C)nc(NCc2cc(F)c(N3CC(=O)NS3(=O)=O)c3[nH]ncc23)c1 | 20 | – | – |
| N[C@@H]1CCc2cc(O)c(N3CC(=O)NS3(=O)=O)c(F)c2CC1 | 1630 | 5.67 | – |
| O=C1CN(c2c(O)cc3c(c2F)C[C@H](NCCC(F)F)CC3)S(=O)(=O)N1 | 1500 | 1 | – |
| CC(C)CCn1ccc2cc(O)c(N3CC(=O)NS3(=O)=O)c(F)c2c1=O | – | > 1000 | – |
| O=C1CN(c2c(O)cc3c(c2F)C[C@H](NCCCC(F)(F)F)CC3)S(=O)(=O)N1 | < 50 | 1 | – |
| CC1(C)CCC(NCc2ccc(O)c(N3CC(=O)NS3(=O)=O)c2F)CC1 | – | 10000 | – |
| CC(C)CCOc1ccc2cc(O)c(N3CC(=O)NS3(=O)=O)c(F)c2n1 | – | < 1000 | – |
| Cn1c(=O)n(C2CCC(=O)NC2=O)c2ccc(C3CCN(C(=O)CNc4ccc5c(F)c(N6CC(=O)NS6(=O)=O)c(O)cc5c4)CC3F)cc21 (stereo not given) | – | – | DC50 [6]: < 10 nM |
| CC(C)CCn1cc(-c2ccc(O)c(N3CC(=O)NS3(=O)=O)c2F)nn1 | – | < 1000 | – |
| Cc1cc(O)nc(Nc2cc(O)c(N3CC(=O)NS3(=O)=O)c(F)c2)n1 | < 5000 | – | Ki [2]: 1 nM |
| CN(Cc1cc(O)c(N2CC(=O)NS2(=O)=O)c(F)c1)C1CCC(C)(C)CC1 | 14900 | 50 | – |
| CC(C)CCN[C@@H]1CSc2cc(O)c(N3CC(=O)NS3(=O)=O)c(F)c2C1 | – | – | IC50 [3]: 1.34 nM |
| O=C1CN(c2c(O)cc(NC(=O)N[C@H](CO)c3ccccc3)cc2F)S(=O)(=O)N1 (racemic) | < 5000 | 5 | – |
| COc1cc(CC(=O)N[C@@H](Cc2ccccc2)C(=O)N[C@@H](Cc2ccc(C(F)(F)P(=O)(O)O)cc2)C(=O)N[C@@H](CCCCNC(=O)c2ccc(C)c(Br)c2)C(=O)NCc2cccc(CC(=O)N[C@H](C(=O)N3C[C@H](O)C[C@H]3C(=O)N[C@@H](C)c3ccc(-c4scnc4C)cc3)C(C)(C)C)c2)ccc1O ({Phenylacetyl(4-OH,3-OMe)}-F[F2Pmp]K(Benzoyl(3-Br,4-Me))[NHCH2(1,3-C6H4)CH2CO][Tle][Hyp]-X1) | – | – | DC50 [6]: 4.8 nM |

Reference: ChEMBL document CHEMBL6121069, “A Medicinal Chemistry Perspective on Protein Tyrosine Phosphatase Nonreceptor Type 2 in Tumor Immunology” (J Med Chem, 2025)
